System: MDA production (lipid peroxidation) in brain tissue
Experiment: Malonaldehyde (MDA) production in mouse brain after oral administration and sleep fragmentation
Assay type: in vivo, mice
Conditions: gavage once a day for 120 days, then 15 days sleep fragmentation, brain cortex, MDA expressed as fold increase
Source text: Male adult mice were obtained having either the human APOE ε4 allele (targeted replacement, n=42) or wild type allele (n=42). […] Administration was by gavage once a day for 120 days. After this period, the subject mice underwent sleep fragmentation (SF) for 15 days. The SF device exposes freely behaving mice in a standard laboratory cage to intermittent tactile stimulation utilizing a motorized mechanical device. Tactile stimulation is produced by a horizontal bar powered by an electrical motor system, which sweeps just above the cage floor from side to side at intermittent functioning mode (2 min). During the […] motion, mice may need to step over the […] passes. Chronic SF may induce inflammatory responses and oxidative stress. After 15 days of SF, the mice were sacrificed and the brain dissected out for MDA and 8-OHdG assays, which are produced by the brain in response to oxidative stress and inflammatory events. MDA production is an indicator of lipid peroxidation. After the mice were sacrificed, an LPO-586 kit (OxisResearch, Portland Oreg.) was used according to the manufacturer's instructions to measure MDA levels in the brain tissue. The animals were anesthetized with CO2 inhalation then decapitated, and the cortex were dissected, snap frozen in liquid nitrogen, and stored at -80° C. until assay the following day. Neuronal tissues were homogenized in 20 mM phosphate buffer (pH 7.4) containing 0.5 mM butylated hydroxytoluene to prevent sample oxidation. […] The samples were then centrifuged and clear supernatants measured at 586 nm. MDA production was then calculated per the standard curve according to the manufacturer's instructions. The relative levels of lipid peroxidation were expressed in fold increase in MDA production.

## O=C(O)CCCCC1CCSS1 (stereo not drawn) [lipoic acid (SW), lipoic acid]
MDA-APOE ε4 allele mice (human APOE ε4 targeted replacement)
  MDA production, Diff of Means: 0.663
MDA-Wild Type mice
  MDA production, Diff of Means: 0.46

## Cc1c(C)c2c(c(C)c1O)CC[C@@](C)(CCC[C@H](C)CCC[C@H](C)CCCC(C)C)O2 [vitamin E (SW), vitamin E]
MDA-Wild Type mice
  MDA production, Diff of Means: 0.489

Reference: patent publication US20120052126A1, “Nanoemulsions Containing Antioxidants And Other Health-Promoting Compounds” (priority 2010, published 2012)
